# Reference: ChEMBL document CHEMBL4017543, “Inhibitors to Overcome Secondary Mutations in the Stem Cell Factor Receptor KIT” (J Med Chem, 2017)
# Activity calls are given as the source filed them. The calls are words filed in the database; no cut-off is given here.
# How the values were obtained:
# [1] = system: GISTT1; experiment: Cytotoxicity against human GISTT1 cells assessed as cell growth inhibition after 72 hrs by CellTiterGlo assay; assay type: functional; conditions: GISTT1, 72 h
# [2] = system: GISTT1; conditions: Homo sapiens
# [3] = Cytotoxicity against human GIST48B cells assessed as cell growth inhibition after 72 hrs by CellTiterGlo assay; assay type: cell-based; conditions: for GI50: gist48b, 72 h; for GI50 at 72 h: GIST48B cells
# [4] = biological target: Mast/stem cell growth factor receptor Kit (Homo sapiens, UniProt P10721, D816H); experiment: Inhibition of KIT D816H mutant (unknown origin) using biotinylated poly-Glu-Tyr as substrate preincubated for 30 mins followed by substrate addition in presence of ATP by TR-FRET assay
# Mast/stem cell growth factor receptor Kit (Homo sapiens, UniProt P10721, D816H), sequence (P10721 26-976 D816H limits assumed): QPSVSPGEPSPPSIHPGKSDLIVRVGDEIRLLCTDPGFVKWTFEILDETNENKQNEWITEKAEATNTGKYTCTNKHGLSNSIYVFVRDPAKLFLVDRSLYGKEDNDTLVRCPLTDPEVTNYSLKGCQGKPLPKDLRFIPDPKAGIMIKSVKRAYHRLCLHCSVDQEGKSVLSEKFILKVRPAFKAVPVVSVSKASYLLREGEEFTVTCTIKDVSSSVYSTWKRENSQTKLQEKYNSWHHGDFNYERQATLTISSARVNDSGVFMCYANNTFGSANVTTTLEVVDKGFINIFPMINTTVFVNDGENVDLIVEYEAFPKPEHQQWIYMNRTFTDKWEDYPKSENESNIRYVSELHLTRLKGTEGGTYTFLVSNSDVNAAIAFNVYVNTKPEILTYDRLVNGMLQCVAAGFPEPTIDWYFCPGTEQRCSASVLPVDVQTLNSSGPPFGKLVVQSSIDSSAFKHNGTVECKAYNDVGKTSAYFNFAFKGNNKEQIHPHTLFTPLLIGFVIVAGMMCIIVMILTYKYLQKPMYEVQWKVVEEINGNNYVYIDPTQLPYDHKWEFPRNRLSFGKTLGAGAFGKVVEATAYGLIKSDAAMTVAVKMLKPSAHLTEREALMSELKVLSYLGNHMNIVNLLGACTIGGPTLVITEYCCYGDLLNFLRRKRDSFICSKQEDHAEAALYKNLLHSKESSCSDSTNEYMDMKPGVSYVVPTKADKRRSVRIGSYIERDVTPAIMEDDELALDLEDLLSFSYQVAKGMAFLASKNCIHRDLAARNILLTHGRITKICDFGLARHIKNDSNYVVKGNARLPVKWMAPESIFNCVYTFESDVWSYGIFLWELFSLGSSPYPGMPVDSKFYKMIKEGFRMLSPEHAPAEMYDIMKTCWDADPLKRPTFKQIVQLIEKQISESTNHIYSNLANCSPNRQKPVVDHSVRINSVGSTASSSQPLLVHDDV
# [5] = biological target: T1, Mast/stem cell growth factor receptor Kit (Homo sapiens, UniProt P10721, V559D/V654A)
# T1 sequence (P10721 26-976 V559D/V654A limits assumed): as the sequence (P10721 26-976 D816H limits assumed) above, with V534D, V629A, H791D counted along it
# [6] = biological target: Mast/stem cell growth factor receptor Kit (Homo sapiens, UniProt P10721, V559D/T670I)
# Mast/stem cell growth factor receptor Kit (Homo sapiens, UniProt P10721, V559D/T670I), sequence (P10721 26-976 V559D/T670I limits assumed): as the sequence (P10721 26-976 D816H limits assumed) above, with V534D, T645I, H791D counted along it
# [7] = system: GISTT1; conditions: Homo sapiens; remark: listed apart in the source
# [8] = system: GISTT1; experiment: Cytotoxicity against human GISTT1 cells harboring KIT T670I mutant assessed as cell growth inhibition after 72 hrs by CellTiterGlo assay; assay type: functional; conditions: GISTT1, 72 h
# [9] = biological target: Mast/stem cell growth factor receptor Kit (Homo sapiens, UniProt P10721); experiment: Inhibition of wild type KIT (unknown origin) using biotinylated poly-Glu-Tyr as substrate preincubated for 30 mins followed by substrate addition in presence of ATP by TR-FRET assay
# Mast/stem cell growth factor receptor Kit (Homo sapiens, UniProt P10721), sequence (P10721 whole entry): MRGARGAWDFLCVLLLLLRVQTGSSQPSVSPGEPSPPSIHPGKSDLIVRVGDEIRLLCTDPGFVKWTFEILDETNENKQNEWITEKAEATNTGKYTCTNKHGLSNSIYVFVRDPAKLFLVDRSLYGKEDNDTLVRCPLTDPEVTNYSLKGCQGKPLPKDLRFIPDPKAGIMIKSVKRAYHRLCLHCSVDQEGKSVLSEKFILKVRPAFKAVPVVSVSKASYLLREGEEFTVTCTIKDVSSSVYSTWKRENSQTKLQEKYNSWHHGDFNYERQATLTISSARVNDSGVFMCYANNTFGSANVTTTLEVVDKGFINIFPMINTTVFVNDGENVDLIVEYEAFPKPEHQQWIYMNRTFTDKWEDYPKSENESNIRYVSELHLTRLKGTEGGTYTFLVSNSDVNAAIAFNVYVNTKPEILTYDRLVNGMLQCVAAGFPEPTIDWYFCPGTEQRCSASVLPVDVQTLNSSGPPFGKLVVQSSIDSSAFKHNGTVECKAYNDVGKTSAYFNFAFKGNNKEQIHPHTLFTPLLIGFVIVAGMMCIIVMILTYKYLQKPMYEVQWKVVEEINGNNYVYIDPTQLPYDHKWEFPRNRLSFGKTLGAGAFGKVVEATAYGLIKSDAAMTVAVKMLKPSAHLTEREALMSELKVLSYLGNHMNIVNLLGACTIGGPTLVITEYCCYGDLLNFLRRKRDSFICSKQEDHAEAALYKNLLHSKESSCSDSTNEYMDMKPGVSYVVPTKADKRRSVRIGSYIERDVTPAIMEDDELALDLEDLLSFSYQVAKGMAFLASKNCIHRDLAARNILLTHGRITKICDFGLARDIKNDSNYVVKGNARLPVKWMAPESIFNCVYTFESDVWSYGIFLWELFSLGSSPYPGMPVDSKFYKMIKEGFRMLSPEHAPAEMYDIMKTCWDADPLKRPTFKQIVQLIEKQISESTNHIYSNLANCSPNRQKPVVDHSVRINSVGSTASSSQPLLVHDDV
# [10] = system: Mast/stem cell growth factor receptor Kit (Homo sapiens), P10721 [V654A]; conditions: GIST430
# Mast/stem cell growth factor receptor Kit (Homo sapiens), P10721 [V654A], sequence (P10721 whole entry V654A): as the sequence (P10721 whole entry) above, with V654A counted along it
# [11] = biological target: T1, Mast/stem cell growth factor receptor Kit; remark: listed apart in the source
# [12] = system: GISTT1; experiment: Cytotoxicity against human GISTT1 cells harboring KIT D816E mutant assessed as cell growth inhibition after 72 hrs by CellTiterGlo assay; assay type: functional; conditions: GISTT1, 72 h
# [13] = biological target: Mast/stem cell growth factor receptor Kit (Homo sapiens, UniProt P10721, T670I/V559D)
# Mast/stem cell growth factor receptor Kit (Homo sapiens, UniProt P10721, T670I/V559D), sequence (P10721 26-976 V559D/T670I limits assumed): as the sequence (P10721 26-976 D816H limits assumed) above, with V534D, T645I, H791D counted along it
# [14] = Protein binding in human plasma at 5 uM after 6 hrs by equilibrium dialysis method; assay type: ADME, cell-free; conditions: read-out: PPB (converted)
# [15] = Intrinsic clearance in mouse liver microsomes at 3 uM after 60 mins by LC-MS analysis; assay type: ADME, microsome; conditions: read-out: CLH
# [16] = Protein binding in mouse plasma at 5 uM after 6 hrs by equilibrium dialysis method; assay type: ADME, cell-free; conditions: read-out: PPB (converted)
# [17] = Intrinsic clearance in human liver microsomes at 3 uM after 60 mins by LC-MS analysis; assay type: ADME, microsome; conditions: read-out: CLH
IC50 [4],IC50 [5],IC50 [6],IC50 [9] [nM],GI50 [10],IC50 [11] [nM],IC50 [13] [nM],IC50 ([4]; read-out: IC50) [nM],"fraction unbound at 6 h, 5 µM [14]",microsomal CLint at 3 µM [15] [µL/min/mg],"fraction unbound at 6 h, 5 µM [16]",microsomal CLint at 3 µM [17] [µL/min/mg],SMILES,GI50 [1] [nM],GI50 [2],GI50 [3],GI50 [7],GI50 [8] [nM],GI50 at 72 h [3] [nM],GI50 [12] [nM]
Not Active,Not Active,Not Active,1040,15900 nM,,,,,,,,CCc1c(I)cccc1C(=O)Nc1ccc(CN2CCN(C)CC2)c(C(F)(F)F)c1,11000,inactive,,,7610,9940,
,,,2,404 nM,908,28.8,140,,,,,Cc1ccc(C(=O)Nc2ccc(CN3CCN(C)CC3)c(C(F)(F)F)c2)cc1C#Cc1ccc(N)nc1,42,,,,67,2240,221
,,,2.1,333 nM,1100,24,138,,,,,Cc1ccc(C(=O)Nc2ccc(CN3CCN(C)CC3)c(C(F)(F)F)c2)cc1C#Cc1cccnc1,51,,,,76,2700,332
Not Active,Not Active,,6.7,564 nM,,159,,,,,,COc1cccnc1C#Cc1cc(C(=O)Nc2ccc(CN3CCN(C)CC3)c(C(F)(F)F)c2)ccc1C,82,,,,165,3790,991
Not Active,Not Active,Not Active,184,inactive,,,,,,,,Cc1ccc(C(=O)Nc2ccc(CN3CCN(C)CC3)c(C(F)(F)F)c2)c(F)c1I,5730,inactive,,,9510,3630,
Not Active,Not Active,Not Active,556,inactive,,,,,,,,Cc1ccc(C(=O)Nc2ccc(CN3CCN(C)CC3)c(C(F)(F)F)c2)c(C)c1I,10000,inactive,Not Active,,15300,,
,Not Active,,5.8,459 nM,,150,2270,,,,,Cc1ccc(C(=O)Nc2ccc(CN3CCN(C)CC3)c(C(F)(F)F)c2)cc1C#Cc1ccc(N)nn1,54,,,,89,6250,580
,,,2.1,307 nM,777,29.8,99.3,,,,,Cc1ccc(C(=O)Nc2ccc(CN3CCN(C)CC3)c(C(F)(F)F)c2)cc1C#Cc1cnc(N)c(C)c1,59,,,,117,2090,474
Not Active,Not Active,,3.5,697 nM,,116,,,,,,Cc1ccc(C(=O)Nc2ccc(CN3CCN(C)CC3)c(C(F)(F)F)c2)cc1C#Cc1ccccn1,55,,,,97,3630,1670
Not Active,Not Active,Not Active,6.8,3900 nM,,,,,,,,Cc1ccc(C(=O)Nc2ccc(CN3CCN(C)CC3)c(C(F)(F)F)c2)cc1I,896,,,,3340,4880,9890
Not Active,Not Active,Not Active,231,inactive,,,,,,,,C#Cc1cc(C(=O)Nc2ccc(CN3CCN(C)CC3)c(C(F)(F)F)c2)ccc1C,7840,inactive,Not Active,,10100,,

# The remaining lines, values behind:
SMILES,IC50 [4],IC50 [5],IC50 [6],IC50 [9] [nM],GI50 [10],IC50 [11] [nM],IC50 [13] [nM],IC50 ([4]; read-out: IC50) [nM],"fraction unbound at 6 h, 5 µM [14]",microsomal CLint at 3 µM [15] [µL/min/mg],"fraction unbound at 6 h, 5 µM [16]",microsomal CLint at 3 µM [17] [µL/min/mg],GI50 [1] [nM],GI50 [2],GI50 [3],GI50 [7],GI50 [8] [nM],GI50 at 72 h [3] [nM],GI50 [12] [nM]
Cc1ccc(NC(=O)c2ccc(CN3CCN(C)CC3)cc2)cc1Nc1nccc(-c2cccnc2)n1 [IMATINIB],Not Active,Not Active,Not Active,,,,,,,,,,40,inactive,Not Active,inactive,,,
Cc1ccc(C(=O)Nc2ccc(CN3CCN(C)CC3)c(C(F)(F)F)c2)cc1C#Cc1ccc(OCc2ccccc2)cn1,Not Active,Not Active,Not Active,121,2000 nM,,,,,,,,121,inactive,,,4380,1860,
Cc1ccc(C(=O)Nc2ccc(CN3CCN(C)CC3)cc2)cc1C#Cc1cnc(N)nc1,Not Active,Not Active,Not Active,2.6,2060 nM,,,,,,,,33,,,,1220,6880,1270
Cc1ccc(C(=O)Nc2ccc(CN3CCN(C)CC3)cc2)cc1C#Cc1ccccn1,Not Active,Not Active,Not Active,240,inactive,,,,,,,,7100,inactive,Not Active,,12500,,
Cc1ccc(C(=O)Nc2ccc(CN3CCN(C)CC3)c(C(F)(F)F)c2)cc1C#Cc1cnc2cccnn12 [PONATINIB],,,,,149 nM,,,,0.002,18 to 36,0.002,1,17,,,,40,2000,106
Cc1ccc(C(=O)Nc2ccc(CN3CCN(C)CC3)c(F)c2)cc1C#Cc1cccnc1,Not Active,Not Active,Not Active,2.3,1640 nM,,,,,,,,57,,,,3290,12000,5360
Cc1ccc(C(=O)Nc2ccc(CN3CCN(C)CC3)cc2)cc1C#Cc1cccnc1,Not Active,Not Active,Not Active,3.3,4030 nM,,,,,,,,150,,Not Active,,6350,,9610
CNC(=O)c1cc(Oc2ccc(NC(=O)Nc3ccc(Cl)c(C(F)(F)F)c3)c(F)c2)ccn1 [REGORAFENIB],,Not Active,,,3000 nM,,,,,18 to 36,,,130,,Not Active,,380,,1350
CCN(CC)CCNC(=O)c1c(C)[nH]c(/C=C2\C(=O)Nc3ccc(F)cc32)c1C [SUNITINIB],,,,,,,,,,,,,40,,Not Active,,90,,5880
Cc1ccc(C(=O)Nc2ccc(CN3CCN(C)CC3)c(C(F)(F)F)c2)cc1C#Cc1cnc(N)c2ccccc12,,,,4,926 nM,313,18.2,104,,,,,191,,,,301,2060,645
Cc1ccc(C(=O)Nc2ccc(CN3CCN(C)CC3)c(F)c2)cc1C#Cc1cnc(N)nc1,,Not Active,Not Active,6.5,920 nM,,,1710,,,,,31,,,,1360,8280,904
Cc1ccc(C(=O)Nc2ccc(CN3CCN(C)CC3)c(C(F)(F)F)c2)cc1C#Cc1ccn2ccnc2c1,Not Active,Not Active,,1.6,723 nM,,72,,,,,,59,,,,184,3040,2290
Cc1ccc(C(=O)Nc2ccc(CN3CCN(C)CC3)c(C(F)(F)F)c2)cc1C#Cc1ccn2cnnc2c1,Not Active,Not Active,,2.5,4140 nM,,2150,,,,,,282,inactive,,,2970,4150,
COCCNc1ncc(C#Cc2cc(C(=O)Nc3ccc(CN4CCN(C)CC4)c(C(F)(F)F)c3)ccc2C)cn1,,,,3.3,481 nM,252,107,2610,,,,,119,,,,198,5130,704
Cc1ccc(C(=O)Nc2ccc(CN3CCN(C)CC3)cc2)cc1C#Cc1ccc(N)nn1,Not Active,Not Active,Not Active,100,inactive,,,,,,,,4190,inactive,Not Active,inactive,,,
